Measurements: the supplement of paper PMC13380429

Assays:
[1] = system: A549-ACE2 infected with SARS-CoV-2; assay: cell count relative to DMSO; higher = less toxic; conditions: 24 h
[2] = system: A549-ACE2 infected with SARS-CoV-2; assay: morphology score (similarity to uninfected cells); higher = more like uninfected cells; conditions: 24 h
Caco-2 [3] = assay: cell viability relative to DMSO; higher = less toxic; conditions: 72 h
Vero E6 [4] = assay: as above; conditions: 72 h
HepG2 [5] = assay: as above; conditions: 72 h
Calu-3 [6] = assay: as above; conditions: 72 h
U2OS [7] = assay: as above; conditions: 72 h
Caco-2 [8] = assay: drug sensitivity score (DSS) for viability; higher = more toxic; extreme values may be limits of the assay; conditions: 72 h
Vero E6 [9] = assay: as above; conditions: 72 h
HepG2 [10] = assay: as above; conditions: 72 h
Calu-3 [11] = assay: as above; conditions: 72 h
U2OS [12] = assay: as above; conditions: 72 h
Caco-2 [13] = assay: relative viability EC50 (midpoint between 100% and the lowest measured viability); higher = less toxic; conditions: 72 h
Calu-3 [14] = assay: as above; conditions: 72 h
A549-ACE2 [15] = assay: drug-induced phospholipidosis relative to tamoxifen; higher = more phospholipidosis
[16] = system: A549-ACE2 infected with SARS-CoV-2; assay: SARS-CoV-2 infection rate relative to DMSO; higher = more infection; conditions: 24 h
HepG2 [17] = assay: relative viability EC50 (midpoint between 100% and the lowest measured viability); higher = less toxic; conditions: 72 h
U2OS [18] = assay: as above; conditions: 72 h
A549-ACE2 [19] = assay: phospholipidosis EC50; higher = less potent phospholipidosis inducer

CCn1c(-c2nonc2N)nc2cncc(C(=O)N3CC[C@H](N)C3)c21
Conditions	SARS-CoV-2 infection rate, [16] [%]	cell count, [1] [%]	cell viability, Caco-2 [3] [%]	cell viability, Calu-3 [6] [%]	cell viability, HepG2 [5] [%]	cell viability, U2OS [7] [%]	cell viability, Vero E6 [4] [%]	morphology score, [2]
1 nM	–	–	98.7	104	99.3	103	107	–
10 nM	–	–	99.1	94	108	99.1	106	–
0.1 µM	103	104	–	–	–	–	–	0.19
100 nM	–	–	98.1	107	95.9	101	95.3	–
0.3 µM	105	110	–	–	–	–	–	0.18
1 µM	109	91	–	–	–	–	–	-0.07
1000 nM	–	–	93.5	127	88.2	88.2	84.6	–
3 µM	105	73	–	–	–	–	–	-0.12
10000 nM	–	–	84.2	124	71.8	60.5	52.2	–

Conditions	drug sensitivity score	relative viability EC50 [µM]
Caco-2 [8]	0.5	–
Caco-2 [13]	–	> 10
Calu-3 [11]	0	–
Calu-3 [14]	–	> 10
HepG2 [10]	2.2	–
U2OS [12]	3.7	–
Vero E6 [9]	4.4	–

drug-induced phospholipidosis [%], A549-ACE2 [15]
Conditions	0.3 µM	0.833333 µM	3.33333 µM	6.66667 µM	10 µM	30 µM
24 h	0.14	1.05	-2.9	-4.65	-1.66	4.03
48 h	0.57	0.37	-3.24	-3.77	-1.92	7.82
72 h	0.439	-0.392	-3.22	-2.1	–	–

O=C(CCCN1CCC2(CC1)C(=O)N(Cc1cccc(F)c1)CN2c1ccccc1)c1ccc(F)cc1 [3'-fluorobenzylspiperone]
Conditions	SARS-CoV-2 infection rate [%]	cell count [%]	cell viability [%]	morphology score	phospholipidosis EC50 [nM]
A549-ACE2 [19], 48 h	–	–	–	–	2950
Caco-2 [3], 1 nM	–	–	90.9	–	–
Caco-2 [3], 10 nM	–	–	91.1	–	–
Caco-2 [3], 100 nM	–	–	100	–	–
Caco-2 [3], 1000 nM	–	–	101	–	–
Caco-2 [3], 10000 nM	–	–	27.9	–	–
Calu-3 [6], 1 nM	–	–	101	–	–
Calu-3 [6], 10 nM	–	–	106	–	–
Calu-3 [6], 100 nM	–	–	90.6	–	–
Calu-3 [6], 1000 nM	–	–	101	–	–
Calu-3 [6], 10000 nM	–	–	29.7	–	–
HepG2 [5], 1 nM	–	–	94.6	–	–
HepG2 [5], 10 nM	–	–	98.1	–	–
HepG2 [5], 100 nM	–	–	95.9	–	–
HepG2 [5], 1000 nM	–	–	103	–	–
HepG2 [5], 10000 nM	–	–	44.4	–	–
U2OS [7], 1 nM	–	–	96.5	–	–
U2OS [7], 10 nM	–	–	102	–	–
U2OS [7], 100 nM	–	–	98.7	–	–
U2OS [7], 1000 nM	–	–	99.8	–	–
U2OS [7], 10000 nM	–	–	26.4	–	–
Vero E6 [4], 1 nM	–	–	103	–	–
Vero E6 [4], 10 nM	–	–	97.2	–	–
Vero E6 [4], 100 nM	–	–	93	–	–
Vero E6 [4], 1000 nM	–	–	95.1	–	–
Vero E6 [4], 10000 nM	–	–	62.9	–	–
[1], 0.1 µM	–	97	–	–	–
[1], 0.3 µM	–	102	–	–	–
[1], 1 µM	–	109	–	–	–
[1], 3 µM	–	107	–	–	–
[2], 0.1 µM	–	–	–	-0.13	–
[2], 0.3 µM	–	–	–	0.27	–
[2], 1 µM	–	–	–	0.46	–
[2], 3 µM	–	–	–	0.54	–
[16], 0.1 µM	99	–	–	–	–
[16], 0.3 µM	90	–	–	–	–
[16], 1 µM	87	–	–	–	–
[16], 3 µM	17	–	–	–	–

Conditions	drug sensitivity score	relative viability EC50 [µM]
Caco-2 [8]	3.9	–
Caco-2 [13]	–	3.28
Calu-3 [11]	3.8	–
Calu-3 [14]	–	3.25
HepG2 [10]	2.7	–
HepG2 [17]	–	3.46
U2OS [12]	4.1	–
U2OS [18]	–	3.15
Vero E6 [9]	2.6	–

drug-induced phospholipidosis [%], A549-ACE2 [15]
Conditions	0.3 µM	0.833333 µM	3.33333 µM	6.66667 µM	10 µM	30 µM
24 h	3.51	-1.7	29	48.2	-29.1	-34.9
48 h	4.33	1.23	42.2	60	–	–
72 h	4.04	1.05	39.3	48.1	–	–

COc1ccc(-c2cc3nccn3c(Nc3ncccc3C(N)=O)n2)cc1OC [BAY-61-3606]
Conditions	SARS-CoV-2 infection rate, [16] [%]	cell count, [1] [%]	cell viability, Caco-2 [3] [%]	cell viability, Calu-3 [6] [%]	cell viability, HepG2 [5] [%]	cell viability, U2OS [7] [%]	cell viability, Vero E6 [4] [%]	morphology score, [2]
1 nM	–	–	104	108	96.1	103	97.4	–
10 nM	–	–	89.8	99.1	99.7	97.4	99	–
0.1 µM	94	99	–	–	–	–	–	0.21
100 nM	–	–	95.8	96	102	101	93.9	–
0.3 µM	101	99	–	–	–	–	–	0.16
1 µM	107	95	–	–	–	–	–	0.02
1000 nM	–	–	80.8	130	87.5	94.1	99.6	–
3 µM	82	59	–	–	–	–	–	0.48
10000 nM	–	–	46.1	109	5	53.3	70.9	–

Conditions	drug sensitivity score	relative viability EC50 [µM]
Caco-2 [8]	5.2	–
Caco-2 [13]	–	1.36
Calu-3 [11]	0	–
Calu-3 [14]	–	> 10
HepG2 [10]	7.4	–
HepG2 [17]	–	2.1
U2OS [12]	3.4	–
Vero E6 [9]	1.3	–

drug-induced phospholipidosis [%], A549-ACE2 [15]
Conditions	0.3 µM	0.833333 µM	3.33333 µM
24 h	-2.52	-2.28	22.8
48 h	0.47	-0.01	–
72 h	0.971	-0.217	–

COC(=O)C1=C(C)NC(C)=C(C(=O)NCCCN2CCC(c3ccccc3)(c3ccccc3)CC2)C1c1ccc([N+](=O)[O-])cc1 (stereo unspecified) [SNAP-5089]
Conditions	SARS-CoV-2 infection rate [%]	cell count [%]	cell viability [%]	morphology score	phospholipidosis EC50 [nM]
A549-ACE2 [19], 24 h	–	–	–	–	945
A549-ACE2 [19], 48 h	–	–	–	–	1980
A549-ACE2 [19], 72 h	–	–	–	–	4510
Caco-2 [3], 1 nM	–	–	95.4	–	–
Caco-2 [3], 10 nM	–	–	94.8	–	–
Caco-2 [3], 100 nM	–	–	92.9	–	–
Caco-2 [3], 1000 nM	–	–	106	–	–
Caco-2 [3], 10000 nM	–	–	63	–	–
Calu-3 [6], 1 nM	–	–	88.4	–	–
Calu-3 [6], 10 nM	–	–	101	–	–
Calu-3 [6], 100 nM	–	–	92.3	–	–
Calu-3 [6], 1000 nM	–	–	107	–	–
Calu-3 [6], 10000 nM	–	–	12.1	–	–
HepG2 [5], 1 nM	–	–	114	–	–
HepG2 [5], 10 nM	–	–	108	–	–
HepG2 [5], 100 nM	–	–	102	–	–
HepG2 [5], 1000 nM	–	–	98.6	–	–
HepG2 [5], 10000 nM	–	–	35.5	–	–
U2OS [7], 1 nM	–	–	94.4	–	–
U2OS [7], 10 nM	–	–	98.7	–	–
U2OS [7], 100 nM	–	–	98.5	–	–
U2OS [7], 1000 nM	–	–	102	–	–
U2OS [7], 10000 nM	–	–	63.8	–	–
Vero E6 [4], 1 nM	–	–	94.8	–	–
Vero E6 [4], 10 nM	–	–	98.5	–	–
Vero E6 [4], 100 nM	–	–	97.4	–	–
Vero E6 [4], 1000 nM	–	–	91.8	–	–
Vero E6 [4], 10000 nM	–	–	74.3	–	–
[1], 0.1 µM	–	104	–	–	–
[1], 0.3 µM	–	100	–	–	–
[1], 1 µM	–	110	–	–	–
[1], 3 µM	–	123	–	–	–
[2], 0.1 µM	–	–	–	0.15	–
[2], 0.3 µM	–	–	–	-0.06	–
[2], 1 µM	–	–	–	0.43	–
[2], 3 µM	–	–	–	0.87	–
[16], 0.1 µM	92	–	–	–	–
[16], 0.3 µM	107	–	–	–	–
[16], 1 µM	84	–	–	–	–
[16], 3 µM	23	–	–	–	–

Conditions	drug sensitivity score	relative viability EC50 [µM]
Caco-2 [8]	1.4	–
Calu-3 [11]	4.4	–
Calu-3 [14]	–	3.57
HepG2 [10]	3.7	–
HepG2 [17]	–	3.02
U2OS [12]	1.6	–
Vero E6 [9]	1.9	–

drug-induced phospholipidosis [%], A549-ACE2 [15]
Conditions	0.3 µM	0.833333 µM	3.33333 µM	6.66667 µM	10 µM	30 µM
24 h	5.01	19.9	66.9	74.6	62.5	47.6
48 h	7.57	17.4	77.4	93.7	96.6	–
72 h	6.91	11.4	64.3	94.9	116	–
